Our source for the IC50 values is patent publication US20150018546A1, “HETEROCYCLIC COMPOUND HAVING ANTI-HIV ACTIVITY” (TOYAMA CHEMICAL CO., LTD., priority 2012, published 2015).

The test concerns HIV-1 (JRCSF). Briefly: Anti-HIV activity in MaRBLE cells infected with HIV-1 (JRCSF), luciferase readout. It counts as cell-based. To be noted: Human immunodeficiency virus 1, 168 h, read-out: Anti-HIV activity IC50. Summed up:
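HPB-M(a)-derived MaRBLE cells carrying HIV-1 LTR-luciferase and CCR5, infected with HIV-1 JRCSF, 1×10^5 cells/well in RPMI1640/10% FCS, cultured 7 days at 37 °C. Luciferase read; proliferation % relative to compound-free wells minus uninfected background; IC50 by linear regression on log concentration.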

[1] abbreviates: MaRBLE cells (human T lymphocyte-derived HPB-M(a)) infected with HIV-1 (JRCSF), 7 days culture, rate of viral proliferation by luciferase activity.

Counter-ions that a name gives are not always drawn. Like-named read-outs stand apart in the source and are kept apart here.

On to `Cc1ncnc2c1c(NCc1ccc(C(C)C)cc1)cc(=O)n2O` [Example 152, 8-hydroxy-5-((4-isopropylbenzyl)amino)-4-methylpyrido[2,3-d]pyrimidin-7(8H)-one], for which the IC50 under setting [1] is 95 nM.
The same measure, in the same setting: in the case of `Cc1ncnc2c1c(NCc1ccco1)cc(=O)n2O` [Example 153, 5-((2-furylmethyl)amino)-8-hydroxy-4-methylpyrido[2,3-d]pyrimidin-7(8H)-one] it was 130 nM.
Regarding `Cc1ncnc2c1c(NCc1ncc[nH]1)cc(=O)n2O` [Example 154, 8-hydroxy-5-(((1H-imidazol-2-yl)methyl)amino)-4-methylpyrido[2,3-d]pyrimidin-7(8H)-one], the IC50 under setting [1] came out at 720 nM.
For `Cc1ncnc2c1c(NCCCN(C)C)cc(=O)n2O` [Example 155, 5-((3-(dimethylamino)propyl)amino)-8-hydroxy-4-methylpyrido[2,3-d]pyrimidin-7(8H)-one hydrochloride], the IC50 turned out to be 230 nM.
Regarding `Cc1ncnc2c1c(NCC1CCN(C)CC1)cc(=O)n2O` [Example 156, 8-hydroxy-4-methyl-5-(((1-methylpiperidin-4-yl)methyl)amino)pyrido[2,3-d]pyrimidin-7(8H)-one], the IC50 under setting [1] was 590 nM.
As to `COc1ncccc1CNc1cc(=O)n(O)c2ncnc(C)c12` [Example 157, 8-hydroxy-5-(((2-methoxypyridin-3-yl)methyl)amino)-4-methylpyrido[2,3-d]pyrimidin-7(8H)-one], the IC50 under setting [1] was 44 nM.
As to `COc1ccc(CNc2cc(=O)n(O)c3ncnc(C)c23)cn1` [Example 158, 8-hydroxy-5-(((2-methoxypyridin-5-yl)methyl)amino)-4-methylpyrido[2,3-d]pyrimidin-7(8H)-one], the IC50 under setting [1] was determined as 74 nM.
On the same count and under the same terms, in the case of `Cc1ncnc2c1c(NCc1ccccc1OC(F)(F)F)cc(=O)n2O` [Example 160, 8-hydroxy-4-methyl-5-((2-(trifluoromethoxy)benzyl)amino)pyrido[2,3-d]pyrimidin-7(8H)-one] it was 68 nM.
As for `Cc1ncnc2c1c(NCCCc1cccnc1)cc(=O)n2O` [Example 161, 8-hydroxy-4-methyl-5-((3-(pyridin-3-yl)propyl)amino)pyrido[2,3-d]pyrimidin-7(8H)-one], under setting [1], the IC50 was 180 nM.
Still for that read-out and setting: in the case of `Cc1ncnc2c1c(NCc1ccc(N)nc1)cc(=O)n2O` [Example 162, 5-(((6-aminopyridin-3-yl)methyl)amino)-8-hydroxy-4-methylpyrido[2,3-d]pyrimidin-7(8H)-one] it was 67 nM; in that of `Cc1ncnc2c1c(NC(C)c1ccccn1)cc(=O)n2O` (centres unmarked) [Example 165, 8-hydroxy-4-methyl-5-((1-(pyridin-2-yl)ethyl)amino)pyrido[2,3-d]pyrimidin-7(8H)-one], 160 nM.

What is called IC50 is the midpoint of a concentration-inhibition curve.
